In patent US7282492B2, “Insecticidal composition having improved storage stability” (priority 2001, dated 2007):

Experiment: Storage stability of Dimethoate emulsifiable concentrates Ia, Ib, Ic (Example 1)
Type: physicochemical
Settings: stored 14 days at 54° C.; Table 1
Description: Three emulsifiable concentrates (Ia, Ib and Ic) containing. Dimethoate were prepared by mixing the components listed below in the amounts stated. Said amounts are parts by weight.
The formulations Ia and Ib are not according to the invention but serve as comparison examples to formulation Ic (according to the invention).
The formulations were stored at different temperatures for various periods of time, whereupon the pro rata share of Dimethoate degradation was determined.

For `O=C1C=CC(=O)O1` [maleic anhydride], the “Stabilization of Dimethoate relative to acetic anhydride” value was “twice as effectively”.
